Assay results as given in ChEMBL document CHEMBL5126523, “Recent advances in DDR (DNA damage response) inhibitors for cancer therapy” (Eur J Med Chem, 2022).
Values belong to the molecule of their own block, whether it stands above or below them.

Key:
[1] = biological target: T1, DNA-dependent protein kinase catalytic subunit (Homo sapiens, UniProt P78527); experiment: Inhibition of DNA-PK (unknown origin) incubated for 3 hrs by ADP-Glo kinase assay
LoVo = experiment: Inhibition of cell growth in human LoVo cells assessed as measuring ATP content incubated for 3 days by Cell Titer Glo assay; format: functional, cell-based; details: 72 h
ATR/ATRIP [2] = biological target: T2, ATR/ATRIP (Homo sapiens, UniProt Q13535); experiment: Inhibition of human FLAG-tagged ATR/c-Myc-tagged ATRIP expressed in mammalian expression system using p53 as substrate incubated for 2 hrs by fluorescence based assay
Wee1-like protein kinase = Wee1-like protein kinase (Homo sapiens, UniProt P30291); experiment: Displacement of tracer 178 from WEE1 (unknown origin) incubated for 1 hr by Lantha Screen assay
[3] = biological target: T3, Poly [ADP-ribose] polymerase 1 (Homo sapiens, UniProt P09874); experiment: Inhibition of N-terminal GST-tagged recombinant human PARP1 (2 to 1014 residues) expressed in Sf9 insect cells incubated for 1 hr by colorimetric assay
MDA-MB-231 = experiment: Inhibition of cell proliferation in human MDA-MB-231 cells incubated for 72 hrs by SRB assay; format: functional, cell-based; details: MDA-MB-231, 72 h
HCC1937 = experiment: Inhibition of cell proliferation in human HCC1937 cells incubated for 72 hrs by SRB assay; format: functional, cell-based; details: HCC1937, 72 h
[4] = biological target: T3, Poly [ADP-ribose] polymerase 1; experiment: Inhibition of PARP1 (unknown origin) incubated for 1 hr by chemiluminescence assay
HCT-116 [5] = experiment: Inhibition of cell proliferation in human HCT-116 cells incubated for 72 hrs by SRB assay; format: functional, cell-based; details: HCT-116, 72 h
[6] = biological target: T4, Phosphatidylinositol 4,5-bisphosphate 3-kinase catalytic subunit alpha isoform (Homo sapiens, UniProt P42336); experiment: Inhibition of PI3K-alpha (unknown origin) incubated for 40 mins in presence of ATP by ELISA
[7] = biological target: T1, DNA-dependent protein kinase catalytic subunit; experiment: Inhibition of DNA-PK (unknown origin) assessed as inhibition constant using Glu-Pro-Pro-Leu-Ser-Gln-Glu-Ala-Phe-Ala-Asp-Leu-Trp-Lys-Lys-Lys peptide as substrate incubated for 45 mins in presence of [33P]-ATP by scintillation counting method
HCT-116 [8] = experiment: Inhibition of cell proliferation in human HCT-116 incubated for 48 hrs by Cell Titer Glo assay; format: functional, cell-based; details: HCT-116, 48 h
NCI-H23 = experiment: Inhibition of cell proliferation in human NCI-H23 incubated for 48 hrs by Cell Titer Glo assay; format: functional, cell-based; details: NCI-H23, 48 h
ATR/ATRIP [9] = biological target: T2, ATR/ATRIP; experiment: Inhibition of full-length recombinant human ATR/ATRIP using p53 as substrate incubated for 30 mins in presence of ATP by HTRF assay; format: protein-complex assay
[10] = biological target: T3, Poly [ADP-ribose] polymerase 1; experiment: Inhibition of PARP1 (unknown origin) by ELISA
Homo sapiens [11] = species: Homo sapiens; experiment: Selectivity index, ratio of IC50 for ATM (unknown origin) to IC50 for mTOR (unknown origin)
Homo sapiens [12] = species: Homo sapiens; experiment: Selectivity index, ratio of IC50 for ATM (unknown origin) to IC50 for ATR (unknown origin)
Homo sapiens [13] = species: Homo sapiens; experiment: Selectivity index, ratio of IC50 for ATM (unknown origin) to IC50 for PI3K-alpha (unknown origin)
[14] = biological target: T4, Phosphatidylinositol 4,5-bisphosphate 3-kinase catalytic subunit alpha isoform; experiment: Inhibition of PI3K-alpha (unknown origin)
[15] = biological target: Serine/threonine-protein kinase mTOR (Homo sapiens, UniProt P42345); experiment: Inhibition of mTOR (unknown origin)
[16] = biological target: T5, Serine-protein kinase ATM (Homo sapiens, UniProt Q13315); experiment: Inhibition of ATM (unknown origin)
[17] = biological target: Serine/threonine-protein kinase ATR (Homo sapiens, UniProt Q13535); experiment: Inhibition of ATR (unknown origin)
NCI-H1299 = experiment: Inhibition of cell proliferation in human NCI-H1299 cells incubated for 3 days by MTT assay; format: functional, cell-based; details: NCI-H1299, 72 h
[18] = biological target: T5, Serine-protein kinase ATM; experiment: Inhibition of ATM in human MCF7 cells […] incubated for 1 hr by Cell Western assay; format: cell-based
[19] = biological target: T1, DNA-dependent protein kinase catalytic subunit; experiment: Inhibition of full-length human DNA-PK expressed in baculovirus expression system using p53 as substrate incubated for 1 hr in presence of ATP by ELISA
[20] = Cmax in BALB/c mouse at 2 mg/kg, po by LC-MS/MS analysis; format: ADME, organism-based; set-up: dose 2 mg/kg, route po; details: in vivo
[21] = Oral bioavailability in BALB/c mouse at 2 mg/kg by LC-MS/MS analysis; format: ADME, organism-based; details: in vivo
[22] = biological target: Poly [ADP-ribose] polymerase tankyrase-1 (Homo sapiens, UniProt O95271); experiment: Inhibition of tankyrase 1 (unknown origin) incubated for 1 hr by chemiluminescence assay
[23] = biological target: Poly [ADP-ribose] polymerase tankyrase-2 (Homo sapiens, UniProt Q9H2K2); experiment: Inhibition of tankyrase 2 (unknown origin) incubated for 1 hr by chemiluminescence based assay

T2 sequence (Q13535 whole entry): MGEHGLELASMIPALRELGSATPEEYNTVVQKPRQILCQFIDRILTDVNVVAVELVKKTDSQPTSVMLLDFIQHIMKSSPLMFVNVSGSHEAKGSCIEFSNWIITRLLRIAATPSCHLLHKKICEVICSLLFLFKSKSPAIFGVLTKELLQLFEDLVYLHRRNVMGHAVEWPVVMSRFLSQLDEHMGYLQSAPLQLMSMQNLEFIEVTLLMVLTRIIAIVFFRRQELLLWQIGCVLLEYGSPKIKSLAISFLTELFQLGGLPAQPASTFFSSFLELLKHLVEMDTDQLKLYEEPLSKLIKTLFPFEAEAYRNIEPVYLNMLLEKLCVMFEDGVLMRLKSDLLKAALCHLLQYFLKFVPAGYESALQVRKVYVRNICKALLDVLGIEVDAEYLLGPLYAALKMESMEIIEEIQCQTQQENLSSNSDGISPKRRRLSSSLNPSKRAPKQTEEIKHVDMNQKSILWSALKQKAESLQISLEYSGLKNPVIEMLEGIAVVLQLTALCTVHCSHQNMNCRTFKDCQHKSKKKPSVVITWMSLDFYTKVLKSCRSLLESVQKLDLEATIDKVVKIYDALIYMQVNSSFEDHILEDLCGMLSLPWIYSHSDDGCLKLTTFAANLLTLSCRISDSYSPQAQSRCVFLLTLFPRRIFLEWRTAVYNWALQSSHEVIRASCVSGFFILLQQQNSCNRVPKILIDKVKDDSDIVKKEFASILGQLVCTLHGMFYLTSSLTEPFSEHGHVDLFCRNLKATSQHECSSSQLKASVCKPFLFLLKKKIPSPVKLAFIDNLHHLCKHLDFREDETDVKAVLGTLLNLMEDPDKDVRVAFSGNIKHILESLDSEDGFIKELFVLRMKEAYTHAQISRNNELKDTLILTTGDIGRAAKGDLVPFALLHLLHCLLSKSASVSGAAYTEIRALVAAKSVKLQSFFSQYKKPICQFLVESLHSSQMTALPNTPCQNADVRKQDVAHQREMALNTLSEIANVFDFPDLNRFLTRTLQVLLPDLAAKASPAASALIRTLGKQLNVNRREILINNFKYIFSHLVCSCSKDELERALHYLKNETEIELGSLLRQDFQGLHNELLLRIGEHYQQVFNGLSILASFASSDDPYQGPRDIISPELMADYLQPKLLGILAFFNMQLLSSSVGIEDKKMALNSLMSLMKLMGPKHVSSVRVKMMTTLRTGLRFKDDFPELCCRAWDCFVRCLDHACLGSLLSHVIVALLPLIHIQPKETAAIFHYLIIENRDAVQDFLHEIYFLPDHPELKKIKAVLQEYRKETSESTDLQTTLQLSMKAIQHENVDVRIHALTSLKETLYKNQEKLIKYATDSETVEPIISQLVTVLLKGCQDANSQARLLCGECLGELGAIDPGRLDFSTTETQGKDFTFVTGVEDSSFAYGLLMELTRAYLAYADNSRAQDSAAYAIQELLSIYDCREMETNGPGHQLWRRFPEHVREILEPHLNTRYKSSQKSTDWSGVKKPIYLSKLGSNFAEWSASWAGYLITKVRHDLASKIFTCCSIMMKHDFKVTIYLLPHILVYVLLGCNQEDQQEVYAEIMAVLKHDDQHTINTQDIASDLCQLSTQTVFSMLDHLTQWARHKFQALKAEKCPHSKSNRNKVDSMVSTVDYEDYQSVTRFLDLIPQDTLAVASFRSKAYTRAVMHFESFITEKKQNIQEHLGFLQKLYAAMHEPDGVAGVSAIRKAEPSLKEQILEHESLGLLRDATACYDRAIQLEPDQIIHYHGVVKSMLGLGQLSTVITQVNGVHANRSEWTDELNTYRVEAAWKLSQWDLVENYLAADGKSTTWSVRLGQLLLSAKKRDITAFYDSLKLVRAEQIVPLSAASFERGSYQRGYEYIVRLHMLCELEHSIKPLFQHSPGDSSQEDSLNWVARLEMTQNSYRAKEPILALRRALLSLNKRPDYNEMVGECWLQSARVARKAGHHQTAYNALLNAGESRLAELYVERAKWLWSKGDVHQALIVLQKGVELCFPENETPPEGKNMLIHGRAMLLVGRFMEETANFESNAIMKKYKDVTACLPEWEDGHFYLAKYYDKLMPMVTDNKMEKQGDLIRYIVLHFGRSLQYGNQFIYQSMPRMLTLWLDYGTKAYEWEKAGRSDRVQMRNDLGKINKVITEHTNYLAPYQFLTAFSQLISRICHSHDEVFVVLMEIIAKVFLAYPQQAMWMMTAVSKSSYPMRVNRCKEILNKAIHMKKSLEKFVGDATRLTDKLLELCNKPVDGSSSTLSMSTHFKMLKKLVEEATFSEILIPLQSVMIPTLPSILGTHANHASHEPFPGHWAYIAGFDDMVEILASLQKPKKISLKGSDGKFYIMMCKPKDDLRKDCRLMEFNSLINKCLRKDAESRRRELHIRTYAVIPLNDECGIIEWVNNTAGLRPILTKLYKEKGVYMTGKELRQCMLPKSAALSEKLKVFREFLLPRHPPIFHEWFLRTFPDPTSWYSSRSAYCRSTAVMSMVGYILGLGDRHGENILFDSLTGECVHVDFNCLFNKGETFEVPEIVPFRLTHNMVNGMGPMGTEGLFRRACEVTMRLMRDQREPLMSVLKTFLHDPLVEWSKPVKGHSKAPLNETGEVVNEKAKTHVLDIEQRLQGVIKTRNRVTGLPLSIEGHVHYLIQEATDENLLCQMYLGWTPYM
T2 sequence (Q8WXE1 whole entry, further chain): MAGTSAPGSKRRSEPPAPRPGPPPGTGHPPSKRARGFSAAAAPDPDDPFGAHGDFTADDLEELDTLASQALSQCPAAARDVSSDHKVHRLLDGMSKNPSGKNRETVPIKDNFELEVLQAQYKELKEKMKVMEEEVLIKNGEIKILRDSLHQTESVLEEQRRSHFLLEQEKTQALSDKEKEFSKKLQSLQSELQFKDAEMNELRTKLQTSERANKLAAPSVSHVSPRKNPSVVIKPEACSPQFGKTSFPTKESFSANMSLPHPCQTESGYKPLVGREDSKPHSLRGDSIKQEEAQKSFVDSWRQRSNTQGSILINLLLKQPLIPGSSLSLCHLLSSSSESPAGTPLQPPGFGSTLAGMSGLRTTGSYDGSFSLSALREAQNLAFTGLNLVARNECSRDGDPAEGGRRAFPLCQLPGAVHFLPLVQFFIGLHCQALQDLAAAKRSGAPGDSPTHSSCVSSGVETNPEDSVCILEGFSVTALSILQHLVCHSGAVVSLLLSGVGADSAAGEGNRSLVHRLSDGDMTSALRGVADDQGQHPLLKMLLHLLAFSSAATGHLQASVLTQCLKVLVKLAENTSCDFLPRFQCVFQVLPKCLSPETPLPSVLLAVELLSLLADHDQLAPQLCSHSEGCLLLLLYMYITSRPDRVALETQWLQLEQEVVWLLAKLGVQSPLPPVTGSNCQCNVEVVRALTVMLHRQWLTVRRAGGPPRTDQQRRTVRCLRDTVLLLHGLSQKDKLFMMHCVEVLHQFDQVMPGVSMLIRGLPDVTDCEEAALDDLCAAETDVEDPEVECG
T3 sequence (P09874 whole entry, the tested form may be a part): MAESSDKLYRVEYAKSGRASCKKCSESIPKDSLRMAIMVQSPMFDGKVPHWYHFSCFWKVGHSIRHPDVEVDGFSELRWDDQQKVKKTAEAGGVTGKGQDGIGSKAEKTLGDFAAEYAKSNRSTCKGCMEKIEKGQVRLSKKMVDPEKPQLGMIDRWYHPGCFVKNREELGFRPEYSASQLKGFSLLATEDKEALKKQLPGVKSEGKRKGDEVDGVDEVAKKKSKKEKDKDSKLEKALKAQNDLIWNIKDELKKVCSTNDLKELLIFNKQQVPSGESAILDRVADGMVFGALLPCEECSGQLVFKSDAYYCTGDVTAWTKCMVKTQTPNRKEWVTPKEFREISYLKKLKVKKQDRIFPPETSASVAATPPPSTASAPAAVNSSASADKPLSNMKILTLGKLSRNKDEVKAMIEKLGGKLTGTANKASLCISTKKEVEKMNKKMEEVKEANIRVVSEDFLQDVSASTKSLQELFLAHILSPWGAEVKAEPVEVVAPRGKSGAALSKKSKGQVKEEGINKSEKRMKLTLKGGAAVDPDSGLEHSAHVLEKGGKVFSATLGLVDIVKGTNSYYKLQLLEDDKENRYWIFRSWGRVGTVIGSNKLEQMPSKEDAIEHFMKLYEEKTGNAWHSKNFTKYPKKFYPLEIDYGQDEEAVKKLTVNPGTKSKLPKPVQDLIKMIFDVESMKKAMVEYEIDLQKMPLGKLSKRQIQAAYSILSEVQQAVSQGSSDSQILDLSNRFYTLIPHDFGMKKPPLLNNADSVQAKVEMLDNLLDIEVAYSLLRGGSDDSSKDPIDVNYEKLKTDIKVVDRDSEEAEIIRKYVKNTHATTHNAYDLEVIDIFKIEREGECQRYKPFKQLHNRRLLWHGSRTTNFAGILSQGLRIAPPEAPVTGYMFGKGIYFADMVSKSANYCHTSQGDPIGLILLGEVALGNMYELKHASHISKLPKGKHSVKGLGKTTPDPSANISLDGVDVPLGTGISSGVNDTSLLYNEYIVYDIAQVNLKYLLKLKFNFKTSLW
Serine/threonine-protein kinase ATR, sequence (Q13535 whole entry): as the sequence (Q13535 whole entry) above
Wee1-like protein kinase, sequence (P30291 whole entry, the tested form may be a part): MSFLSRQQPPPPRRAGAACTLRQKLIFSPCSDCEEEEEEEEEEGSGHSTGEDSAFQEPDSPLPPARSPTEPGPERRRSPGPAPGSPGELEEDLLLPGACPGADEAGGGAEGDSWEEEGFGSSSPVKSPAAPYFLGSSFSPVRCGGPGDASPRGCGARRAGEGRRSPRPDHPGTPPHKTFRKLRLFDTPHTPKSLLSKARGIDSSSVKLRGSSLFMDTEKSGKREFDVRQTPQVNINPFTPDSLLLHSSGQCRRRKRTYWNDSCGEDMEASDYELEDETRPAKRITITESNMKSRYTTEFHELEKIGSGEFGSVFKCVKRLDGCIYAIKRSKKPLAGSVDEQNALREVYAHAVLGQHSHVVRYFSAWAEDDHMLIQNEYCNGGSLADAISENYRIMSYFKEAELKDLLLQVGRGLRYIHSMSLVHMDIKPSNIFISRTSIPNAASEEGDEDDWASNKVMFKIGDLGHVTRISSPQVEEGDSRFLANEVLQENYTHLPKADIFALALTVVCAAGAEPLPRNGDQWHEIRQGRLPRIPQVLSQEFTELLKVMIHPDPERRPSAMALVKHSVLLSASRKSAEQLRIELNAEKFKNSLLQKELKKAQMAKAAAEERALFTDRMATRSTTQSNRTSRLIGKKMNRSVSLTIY

IC50 [1]: 39 nM
Compound: Cc1ncc(-c2cc(NC[C@@H](C)c3cccc4c(-c5noc(=O)[nH]5)ccnc34)ncn2)cn1

IC50 (LoVo): 456 nM
IC50 (ATR/ATRIP [2]): 10 nM
Compound: C[C@@H]1COC[C@H]2COc3c(nc(-c4ccnc5[nH]ccc45)nc3C3(C#N)CC3)N21

IC50 (Wee1-like protein kinase): 2.49 nM
Compound: C=CCn1c(=O)c2cnc(Nc3ccc4c(c3)OC[C@@H]3CN(C)CCN43)nc2n1-c1ccc(C(C)(C)O)cn1

IC50 (LoVo): 55 nM
IC50 (ATR/ATRIP [2]): 3 nM
Compound: C[C@@H]1COCCN1c1nc(C(C)(C)C#N)c2[nH]nc(-c3ccn[nH]3)c2n1

IC50 [3]: < 100 nM
Compound: NC(=O)c1cccc2cn(-c3ccc([C@@]4(F)CCCNC4)cc3)nc12

IC50 (MDA-MB-231): 1190 nM
IC50 (HCC1937): 426 nM
IC50 [4]: 0.78 nM
IC50 (HCT-116 [5]): 1050 nM
IC50 [6]: 94 nM
Compound: Nc1ncc(-c2nc(N3CCOCC3)nc(N3CCN(C(=O)c4cc(Cc5n[nH]c(=O)c6ccccc56)ccc4F)CC3)n2)cn1

Ki [7]: < 100 nM
Compound: C[C@@H]1CN(c2cc(O[C@H]3CC[C@@H](Nc4ncccn4)CC3)c3nccnc3c2)CCO1

IC50 (MDA-MB-231): 4120 nM
IC50 (HCC1937): 61 nM
IC50 [4]: 6.3 nM
IC50 (HCT-116 [5]): 94 nM
IC50 [6]: 5.8 nM
Compound: NC(=O)c1cccc2cc(C(=O)N3CCN(c4nc(-c5cnc(N)nc5)nc(N5CCOCC5)n4)CC3)oc12

IC50 (HCT-116 [8]): < 10000 nM
IC50 (NCI-H23): < 10000 nM
IC50 (ATR/ATRIP [9]): < 500 nM
Compound: C[C@@H]1COCCN1c1cc(-c2ccnn2C)nc(-n2c(NCCO)nc3ccc(F)cc32)n1

IC50 [10]: < 200 nM
Compound: C[C@H]1CN(C(=O)c2cc(Cc3n[nH]c(=O)c4c3CCCC4)ccn2)CCN1C(=O)C(=O)C1CC1

Ratio IC50 (Homo sapiens [11]): > 1000
Ratio IC50 (Homo sapiens [12]): > 1000
Ratio IC50 (Homo sapiens [13]): > 1000
IC50 [14]: > 10000 nM
IC50 [15]: > 10000 nM
IC50 [16]: 1.59 nM
IC50 [17]: > 30000 nM
Compound: CC(C)n1c(=O)n(C)c2cnc3ccc(-c4ccc(OCCCN5CCCC5)nc4)cc3c21

IC50 (MDA-MB-231): 155 nM
IC50 (HCC1937): 504 nM
IC50 (HCT-116 [5]): 775 nM
Compound: Nc1cc(C(F)(F)F)c(-c2nc3c(c(N4CCOCC4)n2)CCN(C(=O)c2cc(Cc4n[nH]c(=O)c5ccccc45)ccc2F)C3)cn1

IC50 (NCI-H1299): 105 nM
Compound: C[C@@H]1CN(c2ccc(Nc3cc4c(cn3)C(=O)N(c3c(Cl)cccc3Cl)C3=NCCN34)cc2)C[C@H](C)N1C

IC50 [18]: 1 nM
IC50 [19]: 1 nM
Compound: CN(C)CCCOc1ncc(-c2ccc3ncc4c(c3c2)C2(CCC2)C(=O)N4C)cc1NS(=O)(=O)C(F)(F)F

IC50 (MDA-MB-231): 3290 nM
IC50 (HCC1937): 264 nM
IC50 (HCT-116 [5]): 342 nM
IC50 [6]: 81.7 nM
Compound: Nc1cc(C(F)(F)F)c(-c2nc(N3CCOCC3)nc(N3CCN(C(=O)c4cc(Cc5n[nH]c(=O)c6ccccc56)ccc4F)CC3)n2)cn1

IC50 (MDA-MB-231): 3410 nM
IC50 (HCC1937): 166 nM
IC50 (HCT-116 [5]): 193 nM
Compound: NC(=O)c1cccc2cc(C(=O)N3CCN(c4nc(-c5cnc(N)cc5C(F)(F)F)nc(N5CCOCC5)n4)CC3)oc12

IC50 (NCI-H1299): 284 nM
Compound: C=CCn1c(=O)c2cnc(Nc3ccc(N4CCN(C)CC4)cc3)nc2n1-c1cccc(C(C)(C)O)n1 [ADAVOSERTIB]

IC50 (LoVo): 699 nM
IC50 (ATR/ATRIP [2]): 4 nM
Compound: C[C@@H]1COC[C@H]2COc3c(nc(-c4ccnc5[nH]ccc45)nc3C3(S(C)(=N)=O)CC3)N21 (stereo not given in full)

Cmax [20]: 2170 nM
bioavailability [21]: 83%
Compound: Cc1cc2ncnn2cc1Nc1ncc2c(n1)C1(CCC3(CC3)CC1)C(=O)N2C

IC50 [22]: 13.5 nM
IC50 [4]: 0.25 nM
IC50 [23]: 4.15 nM
Compound: COc1ccc(NC(=O)c2ccc(NC(=O)N3CCN(C(=O)c4cc(Cc5n[nH]c(=O)c6ccccc56)ccc4F)CC3)cc2)cc1
